In brackets after ≈: the same amount, converted by molar mass.

This is an account of results in US12145943B2, “Solid forms of 3-(5-Fluorobenzofuran-3-yl)-4-(5-methyl-5H-[1,3]dioxolo[4,5-f]indol-7-yl)pyrrole-2,5-dione” (Actuate Therapeutics Inc., priority 2017, dated 2024).

Common to all, as to type: physicochemical
A short description of data set [1]: Solubility in 30% acetonitrile in water (HPLC of filtrate, XRPD of remaining solids). How it is done:
The solubility of 9-ING-41 polymorphic forms in 30% Acetonitrile in water was determined using HPLC under the following conditions: • Instrument: Agilent 1260 Infinity Series • Diluent: 30% acetonitrile aqueous solution • Flow rate: 1.5 mL/min • Mobile phase: A: 0.05% TFA in water • B: 0.05% TFA in acetonitrile • Injection volume: […] • Column: XDB-C18, 4.6*50 mm, 1.8 μm • Column Temperature: 40° C. • Detection: 220 nm • Run Time: 8 minutes (2 minutes delay for next injection) • Gradient (T/B %): 0.0/70, 6.0/100, 8.0/100
About 5 mg of 9-ING-41 Form I was added into 2 mL of 30% acetonitrile/70% water (vol/vol). The sample was shaken at 200 rpm in a shaker for 24 h. The vial was visually examined to ensure saturation. 1 mL of the suspension was filtered through a 0.22 µm nylon syringe filter into another clean clear glass vial at 2 hours and at 24 hours. The filtrates were analyzed using HPLC (accurately dilute if necessary) and the remaining solids were analyzed using XRPD.

The nature of data set [2]: Mechanical and pressure effects on crystalline form (XRPD). The method, then:
XRPD analyses were performed using an X-ray diffractometer (Bruker D8 advance) equipped with LynxEye detector. The instrument parameters were listed below. • Scan: 3° (2θ) to 40° (2θ) • Increment: 0.02° (2θ) • Scan speed: 0.3 sec/step • Voltage: 40 KV • Current: 40 mA • Rotation: On • Sample hold: Zero-background sample holder TGA Analysis 9.90 mg of 9-ING-41 Form I was weighed into mortar and ground for 5 min. […] 9-ING-41 Form I was pressed into two tablets. The weight of tablets was 38.9 mg and 36.2 mg, respectively.

Data set [3] can be described thus: Aqueous solubility study (water or buffers, HPLC of filtrate, XRPD of remaining solids). To be noted: for solubility: shaken 200 rpm 24 h. How it is done: The solubility of 9-ING-41 polymorphic forms in water or buffers were determined using HPLC under the following conditions: • Instrument: Agilent 1260 Infinity Series • Diluent: Acetonitrile • Flow rate: 1.5 mL/min • Mobile phase: A: 0.05% TFA in water • B: 0.05% TFA in Acetonitrile • Injection volume: 1 μL • Column: XDB-C18, 4.6*50 mm, 1.8 μm • Column Temperature: 40° C. • Detection: 220 nm • Run Time: 8 minutes (2 minutes delay for next injection) • Gradient (T/B %): 0.0/70, 6.0/100, 8.0/100 10-30 mg of 9-ING-41 Form I was added to 2 mL of water or a buffer solution buffered at pH=1.2, 4.5, or 6.8. The samples were shaken at 200 rpm in a shaker for 24 h. The sample vials were visually examined to ensure saturation. 1 mL of each suspension was filtered at 24 hours through a 0.22 µm nylon syringe filter into another clean clear glass vial. The filtrate was analyzed using HPLC (accurately dilute if necessary) and the remaining solids were analyzed using XRPD.

The nature of data set [4]: Dynamic vapor sorption (DVS) analysis. To be noted: 80% relative humidity, 25.0±1.0° C. The method, then: DVS analyses were conducted on an IGAsorp (HidenIsochema Ltd.). For an isotherm test, the chamber temperature was maintained by a water bath at constant 25.0±1.0° C.

`Cn1cc(C2=C(c3coc4ccc(F)cc34)C(=O)NC2=O)c2cc3c(cc21)OCO3` [Amorphous 9-ING-41, 3-(5-fluorobenzofuran-3-yl)-4-(5-methyl-5H-[1,3]dioxolo[4,5-f]indol-7-yl)pyrrole-2,5-dione] had a solubility at 30 min in data set [1] (aqueous with cosolvent or surfactant or cyclodextrin, thermodynamic from solid, 30% acetonitrile/70% water (vol/vol), after 30 minutes) of 57 µg/mL (≈ 141 µM).

On to `Cn1cc(C2=C(c3coc4ccc(F)cc34)C(=O)NC2=O)c2cc3c(cc21)OCO3` [9-ING-41 Form I, 3-(5-fluoro-1-benzofuran-3-yl)-4-[5-methyl-2H,5H-[1,3]dioxolo[4,5-f]indol-7-yl]-2,5-dihydro-1H-pyrrole-2,5-dione], for which the “crystalline form after grinding (XRPD)” value in data set [2] (ground in mortar for 5 min) is recorded as “had not changed”. Also, the “crystalline form after pressing into tablets (XRPD)” value in data set [2] (pressed into tablets, then ground into powder) is listed as “had not changed”. Further, the “crystalline form of remaining solids (XRPD)” value is given as “no change in crystalline form” in data set [3] (after 24 h in water or pH 1.2, 4.5, 6.8 buffer) and “no change in crystalline form” in data set [1] (after shaking in 30% acetonitrile/70% water). In addition, the solubility result in data set [3] (pH 1.2 buffer), in data set [3] (pH 4.5 buffer), in data set [3] (pH 6.8 buffer) and in data set [3] (water) was “poor” throughout. For the same compound, the “9-ING-41 in the filtrates by HPLC” value in data set [3] (water or pH 1.2, 4.5, 6.8 buffer, filtrate at 24 hours) is on record as “could not be detected”. Besides, the “weight gain (DVS)” value in data set [4] was “about 0.23 % by weight”. Besides, the solubility at 24 h in data set [1] (aqueous with cosolvent or surfactant or cyclodextrin, thermodynamic from solid, 30% acetonitrile/70% water (vol/vol), after 24 hours, read-out: 9-ING-41 in filtrate (solubility) by HPLC) was found to be 48 µg/mL (≈ 119 µM). Moreover, the solubility at 2 h in data set [1] (aqueous with cosolvent or surfactant or cyclodextrin, thermodynamic from solid, 30% acetonitrile/70% water (vol/vol), after two hours, read-out: 9-ING-41 in filtrate (solubility) by HPLC) was determined as 46 µg/mL (≈ 114 µM).

One may read the solubility as the dissolved amount per volume that the medium holds.
